Where a name gives a salt, the structure may show the parent alone. Read-outs that look alike come from different tables or passages of the source.
Columns and labels:
Type in all cases: cell-based
[1] = system: Bifidobacterium longum ssp. longum (DSMZ 20219); test: Broth microdilution MIC, B. longum ssp. longum; settings: DSMZ20219
[2] = system: Bifidobacterium breve (ATCC 15700); test: Broth microdilution MIC, B. breve
[3] = system: Salmonella enterica ssp. enterica serovar Enteritidis (ATCC 13076); test: Broth microdilution MIC, Salmonella Enteritidis; settings: Salmonella Enteritidis, […], read-out: MIC
[4] = system: Bifidobacterium adolescentis (DSMZ 20087); test: Broth microdilution MIC, B. adolescentis
[5] = system: FHs 74 Int (ATCC CCL 241) intestinal normal cells; test: MTT cytotoxicity assay, FHs 74 Int; settings: 72 h; for IC50 / IC80: FHs74Int
[6] = system: Yersinia enterocolitica (ATCC 9610); test: Broth microdilution MIC, Y. enterocolitica; settings: ATCC9610, […], read-out: MIC
[7] = system: Enterococcus faecalis (ATCC 29212); test: Broth microdilution MIC, E. faecalis; settings: ATCC29212, […], read-out: MIC
[8] = system: Lactobacillus casei (DSMZ 20011); test: Broth microdilution MIC, L. casei; settings: Lacticaseibacillus casei, DSMZ20011; Lactobacillus casei; […]; read-out: MIC
[9] = system: Bifidobacterium animalis spp. lactis (DSMZ 10140); test: Broth microdilution MIC, B. animalis spp. lactis; settings: DSMZ10140
[10] = system: intestinal cancer cells (HT29 and Caco-2); test: MTT cytotoxicity assay, mean for intestinal cancer cells; settings: for IC50: read-out: x¯ -CC ± SD: mean IC50 for intestinal cancer cells; for IC80: read-out: x¯ -CC ± SD: mean IC80 for intestinal cancer cells
[11] = system: Shigella flexneri (ATCC 12022); test: microbe, parasite or virus in culture
[12] = system: Bacteroides fragilis (ATCC 25285); test: Broth microdilution MIC, B. fragilis
[13] = system: probiotic bacteria (9 strains); test: Broth microdilution MIC, probiotic bacteria as a group (mean or range over strains)
[14] = system: Escherichia coli (ATCC 25922); test: Broth microdilution MIC, E. coli; settings: ATCC25922, […], read-out: MIC
[15] = system: S. enterica ssp. enterica serovar Typhimurium (ATCC 14028); test: Broth microdilution MIC, Salmonella Typhimurium; settings: Salmonella Typhimurium, […], read-out: MIC
[16] = system: Listeria monocytogenes (ATCC 7644); test: Broth microdilution MIC, L. monocytogenes
[17] = system: Bacillus cereus (ATCC 14579); test: Broth microdilution MIC, B. cereus; settings: ATCC14579, […], median/mode, read-out: MIC
[18] = system: HT29 (ATCC HTB 38) intestinal cancer cells; test: MTT cytotoxicity assay, HT29; settings: Homo sapiens; for IC50: read-out: IC50 ± SD; for IC80: read-out: IC80 ± SD (80% inhibitory concentration of proliferation)
[19] = system: Clostridium difficile (DSMZ 12056); test: microbe, parasite or virus in culture; settings: Clostridioides difficile, DSMZ12056; Clostridium difficile; […]; read-out: MIC
[20] = system: diarrheagenic bacteria (12 strains); test: microbe, parasite or virus in culture
[21] = system: Bifidobacterium bifidum (ATCC 29521); test: Broth microdilution MIC, B. bifidum
[22] = system: Caco-2 (ATCC HTB 37) intestinal cancer cells; test: MTT cytotoxicity assay, Caco-2; settings: Homo sapiens, Caco-2, 72 h; for IC50: read-out: IC50 ± SD; for IC80: read-out: IC80 ± SD (80% inhibitory concentration of proliferation)
[23] = system: Lactobacillus rhamnosus (CCM 7091); test: Broth microdilution MIC, L. rhamnosus; settings: Lacticaseibacillus rhamnosus, CCM7091; Lactobacillus rhamnosus; […]; read-out: MIC
[24] = system: Lactobacillus reuteri (CCM 3625); test: Broth microdilution MIC, L. reuteri; settings: Limosilactobacillus reuteri, CCM3625
[25] = system: E. coli 0175:H7 (NCTC 12900); test: microbe, parasite or virus in culture; settings: Escherichia coli, NCTC12900
[26] = system: Clostridium perfringens (DSMZ 11778); test: microbe, parasite or virus in culture; settings: DSMZ11778
[27] = system: Vibrio parahaemolyticus (ATCC 17802); test: Broth microdilution MIC, V. parahaemolyticus; settings: ATCC17802, […], read-out: MIC
[28] = mean of 12 strains, >512 replaced with 1024, read-out: x¯ -DB ± SD: mean MIC for diarrheagenic bacteria
[29] = FHs 74 Int (intestinal normal cells), MTT

Structure (SMILES) | MIC [3] | MIC [6] | MIC [7] | MIC [8] | IC50 [10] | IC80 [10] | MIC [14] | MIC [15] | MIC [17] | MIC [19] | MIC [20, 28] | IC50 [22] | IC80 [22] | MIC [23] | MIC [25] | MIC [26] | MIC [27] | other results
C[n+]1cc2c3c(ccc2c2ccc4cc5c(cc4c21)OCO5)OCO3 [SG, sanguinarine chloride] | 256 µg/mL | 256 µg/mL | 32 µg/mL | 32 µg/mL | 0.8 ± 0.05 µg/mL | 1.6 ± 0.2 µg/mL | 256 µg/mL | 512 µg/mL | 128 µg/mL | 64 µg/mL | 156 ± 137 µg/mL | 0.8 ± 0.1 µg/mL | 1.5 ± 0.1 µg/mL | 64 µg/mL | 128 µg/mL | 128 µg/mL | 32 µg/mL | MIC ([1]; Bifidobacterium longum): 64 µg/mL; MIC ([2]; ATCC15700): 32 µg/mL; MIC ([4]; DSMZ20087): 16 µg/mL; IC50 ([5]; read-out: IC50 ± SD): 1 ± 0.1 µg/mL; IC80 ([5]; read-out: IC80 ± SD (80% inhibitory concentration of proliferation)): 1.9 ± 0.2 µg/mL; MIC ([9]; Bifidobacterium animalis): 32 µg/mL; MIC ([11]; ATCC12022): 64 µg/mL; MIC ([12]; ATCC25285): 32 µg/mL; MIC ([13]; read-out: x¯ -PB ± SD: mean MIC for probiotic bacteria): 37.3 ± 15 µg/mL; MIC ([16]; ATCC7644): 16 µg/mL; IC50 ([18]; HT-29, HT29, MTT, 72 h): 0.9 ± 0.2 µg/mL; IC80 ([18]; HT-29, HT29, MTT, 72 h): 1.8 ± 0.4 µg/mL; MIC ([21]; ATCC29521): 32 µg/mL; MIC [24]: 32 µg/mL
CN[C@H](CC(C)C)C(=O)N[C@H]1C(=O)N[C@@H](CC(N)=O)C(=O)N[C@H]2C(=O)N[C@H]3C(=O)N[C@H](C(=O)N[C@H](C(=O)O)c4cc(O)cc(O)c4-c4cc3ccc4O)[C@H](O)c3ccc(c(Cl)c3)Oc3cc2cc(c3O[C@@H]2O[C@H](CO)[C@@H](O)[C@H](O)[C@H]2O[C@H]2C[C@](C)(N)[C@H](O)[C@H](C)O2)Oc2ccc(cc2Cl)[C@H]1O [VM, vancomycin hydrochloride] | 512 µg/mL | > 512 µg/mL | > 512 µg/mL | 256 µg/mL | > 512 µg/mL | > 512 µg/mL | > 512 µg/mL | 512 µg/mL | 256 µg/mL | 2 µg/mL | 513 ± 404 µg/mL | > 512 µg/mL | > 512 µg/mL | 64 µg/mL | 512 µg/mL | 1 µg/mL | 256 µg/mL | MIC ([1]; Bifidobacterium longum ssp. longum, […], read-out: MIC): 2 µg/mL; MIC ([2]; ATCC15700, […], read-out: MIC): 4 µg/mL; MIC ([4]; DSMZ20087, […], read-out: MIC): 2 µg/mL; IC50 ± SD [5, 29]: - (Not active (MIC/IC50/80 > 512 μg/mL, the value 1024 μg/mL was used for average calculation)); IC80 ± SD (80% inhibitory concentration of proliferation) [5, 29]: - (Not active (MIC/IC50/80 > 512 μg/mL, the value 1024 μg/mL was used for average calculation)); IC50 ([5]; read-out: IC50 ± SD, FHs 74 Int (intestinal normal cells), MTT): > 512 µg/mL; IC80 ([5]; read-out: IC80 ± SD (80% inhibitory concentration of proliferation), FHs 74 Int (intestinal normal cells), MTT): > 512 µg/mL; MIC ([9]; Bifidobacterium animalis spp. lactis, […], read-out: MIC): 2 µg/mL; MIC ([11]; ATCC12022, […], read-out: MIC): > 512 µg/mL; MIC ([12]; ATCC25285, […], read-out: MIC): 32 µg/mL; MIC ([13]; bifidobacteria, range over strains, read-out: MICs): 2 to 4 µg/mL; MIC ([13]; lactobacilli, range over strains, read-out: MICs): 64 to 256 µg/mL; MIC ([13]; mean of 9 strains, >512 replaced with 1024, read-out: x¯ -PB ± SD: mean MIC for probiotic bacteria): 47.8 ± 78 µg/mL; MIC ([16]; ATCC7644, growth inhibited by ≥80%, read-out: MIC): 8 µg/mL; IC50 ([18]; HT-29, 72 h): > 512 µg/mL; IC80 ([18]; HT-29, 72 h): > 512 µg/mL; MIC ([20]; both clostridial species tested, read-out: MICs): 0.5 to 8 µg/mL; MIC ([21]; ATCC29521, […], read-out: MIC): 4 µg/mL; MIC ([24]; Lactobacillus reuteri, […], read-out: MIC): 64 µg/mL
